Data as given in patent US8952024B2, “Herbicidal pyrimidone derivatives” (E I du Pont de Nemours and Company, priority 2009, dated 2015).

Columns and labels:
Format in all cases: in vivo
[1] = tested on: morningglory (Ipomoea spp.); assay: Test A pre-/postemergence plant response
Procedure, shortened: (§1)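 Injury scores (0, no effect; 100, complete control) come from visual comparison with untreated controls roughly ten days post-treatment. Test chemicals in a surfactant-containing non-phytotoxic solvent were applied as a directed soil spray preemergence and to one- to two-leaf seedlings postemergence.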

[2] = tested on: pigweed (Amaranthus retroflexus); assay: Test A pre-/postemergence plant response
Procedure, shortened: as §1

[3] = tested on: giant foxtail (Setaria faberii); assay: Test B pre-/postemergence plant response; settings: for Foxtail, Giant plant response rating (0 to 100 scale): 0 is no effect, 13 to 15 days
Procedure, shortened: (§2)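 Greenhouse herbicide screen. Pre- and postemergence (1- to 4-leaf) spray of compound in solvent/surfactant mixture; loam–sand soil for pre, peat/vermiculite medium for post. Visual control rating 0–100 at 13 to 15 days after treatment.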

[4] = tested on: goosegrass (Eleusine indica); assay: Test B pre-/postemergence plant response; settings: for Goosegrass plant response rating (0 to 100 scale): 0 is no effect, 13 to 15 days
Procedure, shortened: as §2

[5] = tested on: johnsongrass (Sorghum halepense); assay: Test B pre-/postemergence plant response; settings: for Johnsongrass plant response rating (0 to 100 scale): 0 is no effect, 13 to 15 days
Procedure, shortened: as §2

[6] = tested on: morningglory (Ipomoea coccinea); assay: Test B pre-/postemergence plant response; settings: for Morningglory plant response rating (0 to 100 scale): 0 is no effect, 13 to 15 days
Procedure, shortened: as §2

[7] = tested on: wheat (Triticum aestivum); assay: Test B pre-/postemergence plant response; settings: for Wheat plant response rating (0 to 100 scale): 0 is no effect, 13 to 15 days
Procedure, shortened: as §2

[8] = tested on: woolly cupgrass (Eriochloa villosa); assay: Test B pre-/postemergence plant response; settings: for Cupgrass, Woolly plant response rating (0 to 100 scale): 62 g ai/ha, 0 is no effect, 13 to 15 days
Procedure, shortened: as §2

[9] = tested on: barnyardgrass (Echinochloa crus-galli); assay: Test B flooded paddy test; settings: for Plant response rating, Flood, Barnyardgrass: 250 g ai/ha, flooded paddy test, visual rating on 0 to 100 scale (0 no effect, 100 complete control) after 13 to 15 days; for Plant response rating, Barnyardgrass: Flood (flooded paddy test), 13 to 15 days
Procedure, shortened: (§3)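 2-leaf seedlings; pots flooded 3 cm over soil at treatment; cpd dosed into floodwater, depth kept constant. Greenhouse 13–15 d. Visual rating vs untreated controls, 0 = no effect, 100 = complete control.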

[10] = tested on: ducksalad (Heteranthera limosa); assay: Test B flooded paddy test; settings: for Plant response rating, Flood, Ducksalad: 250 g ai/ha, flooded paddy test, visual rating on 0 to 100 scale (0 no effect, 100 complete control) after 13 to 15 days; for Plant response rating, Ducksalad: Flood (flooded paddy test), 13 to 15 days
Procedure, shortened: as §3

[11] = tested on: rice (Oryza sativa); assay: Test B flooded paddy test; settings: for Plant response rating, Flood, Rice: 250 g ai/ha, flooded paddy test, visual rating on 0 to 100 scale (0 no effect, 100 complete control) after 13 to 15 days; for Plant response rating, Rice: Flood (flooded paddy test), 13 to 15 days
Procedure, shortened: as §3

[12] = tested on: umbrella sedge (Cyperus difformis); assay: Test B flooded paddy test; settings: for Plant response rating, Flood, Sedge, Umbrella: 250 g ai/ha, flooded paddy test, visual rating on 0 to 100 scale (0 no effect, 100 complete control) after 13 to 15 days; for Plant response rating, Sedge, Umbrella: Flood (flooded paddy test), 13 to 15 days
Procedure, shortened: as §3

[13] = Postemergence, 125 g ai/ha, 0 to 100 scale where 0 is no effect and 100 is complete control
[14] = Postemergence, 500 g ai/ha, 0 to 100 scale, 0 = no effect, 100 = complete control, approx. ten days
[15] = Preemergence, 125 g ai/ha, 0 to 100 scale, 0 = no effect, 100 = complete control
[16] = Preemergence, 500 g ai/ha, visual injury, 0 to 100 scale (0 no effect, 100 complete control), approx. ten days
[17] = 31 g ai/ha, postemergence, scale 0 to 100, 0 is no effect, 100 is complete control
[18] = 62 g ai/ha, postemergence, 100 is complete control
[19] = Postemergence, 125 g ai/ha, visual rating after 13 to 15 days, scale 0 (no effect) to 100 (complete control)
[20] = Postemergence, 250 g ai/ha, scale 0 to 100 (0 no effect, 100 complete control)
[21] = Preemergence, 31 g ai/ha, scale 0 to 100 (0 no effect, 100 complete control)
[22] = Preemergence, 62 g ai/ha, scale 0 to 100, 0 no effect, 100 complete control
[23] = Preemergence, 125 g ai/ha, scale 0 to 100, 0 no effect, 100 complete control
[24] = Preemergence, 250 g ai/ha, 0 to 100 scale
[25] = postemergence, 100 is complete control
[26] = 62 g ai/ha, scale of 0 to 100 where 0 is no effect and 100 is complete control
[27] = 125 g ai/ha, scale 0 to 100, 0 is no effect, 100 is complete control
[28] = Flood, 31 g ai/ha, scale 0 to 100 (0 no effect, 100 complete control)

CCCCn1c(CCC)ncc(C(=O)C2=C(O)CCCC2=O)c1=O [Compound 75]
30: Plant response rating, Ducksalad [10, 26]
50: Plant response rating, Flood, Ducksalad [10] | Plant response rating, Flood, Sedge, Umbrella [12]
60: Plant response rating, Morningglory [1, 15] | Plant response rating, Morningglory [6, 22] | Plant response rating, Flood, Barnyardgrass [9]
100: Plant response rating, Morningglory [1, 14] | Plant response rating, Pigweed [2, 13] | Plant response rating, Pigweed [2, 14] | Plant response rating, Pigweed [2, 15] | Plant response rating, Pigweed [2, 16] | Plant response rating, Goosegrass [4, 22] | Plant response rating, Goosegrass [4, 23] | Goosegrass plant response rating [4, 24]
98: Plant response rating, Goosegrass [4, 20]
80: Foxtail, Giant plant response rating (0 to 100 scale) [3, 18] | Plant response rating, Foxtail, Giant [3, 23] | Foxtail, Giant plant response rating [3, 24] | Goosegrass plant response rating (0 to 100 scale) [4, 18] | Plant response rating, Cupgrass, Woolly [8, 20]
10: Johnsongrass plant response rating (0 to 100 scale) [5, 18] | Plant response rating, Johnsongrass [5, 22] | Plant response rating, Wheat [7, 19] | Plant response rating, Cupgrass, Woolly [8, 17]
70: Johnsongrass plant response rating [5, 24]
0: Plant response rating, Foxtail, Giant [3, 21] | Plant response rating, Johnsongrass [5, 17] | Plant response rating, Johnsongrass [5, 21] | Plant response rating, Morningglory [6, 21] | Plant response rating, Wheat [7, 17] | Wheat plant response rating (0 to 100 scale) [7, 18] | Plant response rating, Wheat [7, 21] | Plant response rating, Wheat [7, 22] | Plant response rating, Wheat [7, 23] | Wheat plant response rating [7, 24] | Plant response rating, Rice [11, 26] | Plant response rating, Sedge, Umbrella [12, 26]
45: Plant response rating, Flood, Rice [11]
55: Cupgrass, Woolly plant response rating (0 to 100 scale) [8, 25] | Plant response rating, Cupgrass, Woolly [8, 19] | Plant response rating, Cupgrass, Woolly [8, 23]
20: Plant response rating, Johnsongrass [5, 19] | Plant response rating, Morningglory [6, 17] | Plant response rating, Barnyardgrass [9, 26]
75: Plant response rating, Foxtail, Giant [3, 17] | Plant response rating, Goosegrass [4, 17] | Plant response rating, Johnsongrass [5, 20] | Plant response rating, Morningglory [6, 23] | Cupgrass, Woolly plant response rating [8, 24]
65: Plant response rating, Johnsongrass [5, 23]
85: Plant response rating, Foxtail, Giant [3, 19]
95: Plant response rating, Foxtail, Giant [3, 20] | Plant response rating, Goosegrass [4, 19] | Plant response rating, Goosegrass [4, 21] | Plant response rating, Morningglory [6, 19] | Plant response rating, Morningglory [6, 20]
90: Plant response rating, Morningglory [1, 13] | Plant response rating, Morningglory [1, 16] | Morningglory plant response rating (0 to 100 scale) [6, 18] | Morningglory plant response rating [6, 24]
25: Plant response rating, Foxtail, Giant [3, 22] | Plant response rating, Wheat [7, 20]
5: Plant response rating, Cupgrass, Woolly [8, 21]

CCCc1ncc(C(=O)C2=C(O)CCCC2=O)c(=O)n1-c1cccc(C)c1 [Compound 79]
30: Plant response rating, Flood, Barnyardgrass [9] | Plant response rating, Flood, Sedge, Umbrella [12]
95: Plant response rating, Foxtail, Giant [3, 19] | Plant response rating, Foxtail, Giant [3, 20] | Morningglory plant response rating (0 to 100 scale) [6, 18]
15: Plant response rating, Ducksalad [10, 27] | Plant response rating, Rice [11, 27]
0: Plant response rating, Morningglory [1, 15] | Plant response rating, Johnsongrass [5, 17] | Plant response rating, Barnyardgrass [9, 26] | Barnyardgrass plant response rating [9, 28] | Plant response rating, Ducksalad [10, 26] | Ducksalad plant response rating [10, 28] | Plant response rating, Rice [11, 26] | Rice plant response rating [11, 28] | Plant response rating, Sedge, Umbrella [12, 26] | Plant response rating, Sedge, Umbrella [12, 27] | Sedge, Umbrella plant response rating [12, 28]
25: Wheat plant response rating (0 to 100 scale) [7, 18]
45: Plant response rating, Goosegrass [4, 17]
40: Plant response rating, Wheat [7, 20] | Cupgrass, Woolly plant response rating (0 to 100 scale) [8, 25] | Plant response rating, Flood, Ducksalad [10]
100: Plant response rating, Morningglory [1, 13] | Plant response rating, Morningglory [1, 14] | Plant response rating, Pigweed [2, 13] | Plant response rating, Pigweed [2, 14] | Plant response rating, Pigweed [2, 15] | Plant response rating, Pigweed [2, 16] | Plant response rating, Morningglory [6, 19] | Plant response rating, Morningglory [6, 20]
65: Goosegrass plant response rating (0 to 100 scale) [4, 18] | Johnsongrass plant response rating (0 to 100 scale) [5, 18] | Plant response rating, Cupgrass, Woolly [8, 19]
50: Plant response rating, Morningglory [1, 16]
70: Plant response rating, Foxtail, Giant [3, 17] | Plant response rating, Goosegrass [4, 19] | Plant response rating, Johnsongrass [5, 19]
10: Plant response rating, Wheat [7, 17] | Plant response rating, Cupgrass, Woolly [8, 17]
20: Plant response rating, Barnyardgrass [9, 27] | Plant response rating, Flood, Rice [11]
80: Plant response rating, Goosegrass [4, 20] | Plant response rating, Morningglory [6, 17]
35: Plant response rating, Wheat [7, 19]
75: Foxtail, Giant plant response rating (0 to 100 scale) [3, 18] | Plant response rating, Johnsongrass [5, 20] | Plant response rating, Cupgrass, Woolly [8, 20]
